Emax and IC50 data for 22 compounds are collected here from patent US11524938B2, “Aromatic sulfonamide derivatives” (Bayer Pharma Aktiengesellschaft, priority 2016, dated 2022).

Values joined by “and” are separate entries in the source; they are usually repeats but may differ in a detail not shown here. Equal entries are not always repeated. A value given as a limit tells only on which side of the number the result lay.

By IC50 is commonly meant the concentration needed to halve the response being measured. Read a low IC50 as greater potency in that assay.

This experiment addresses T1, human P2X4 (Homo sapiens, UniProt Q99571).
T1 sequence (Q99571 1-388): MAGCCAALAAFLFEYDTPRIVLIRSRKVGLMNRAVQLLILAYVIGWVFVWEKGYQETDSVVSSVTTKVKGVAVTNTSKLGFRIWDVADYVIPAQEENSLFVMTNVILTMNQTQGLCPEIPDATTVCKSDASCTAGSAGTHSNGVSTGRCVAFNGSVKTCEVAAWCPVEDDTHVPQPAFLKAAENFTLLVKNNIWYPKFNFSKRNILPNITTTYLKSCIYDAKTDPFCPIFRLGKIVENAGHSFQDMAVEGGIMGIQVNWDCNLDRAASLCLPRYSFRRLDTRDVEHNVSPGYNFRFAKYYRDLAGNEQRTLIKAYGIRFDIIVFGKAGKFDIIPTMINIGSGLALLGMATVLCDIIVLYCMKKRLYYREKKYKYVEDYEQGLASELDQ
The experiment in a line: Human P2X4 HEK Cell FLIPR Assay. It is filed as cell-based. To be noted: agonist Bz-ATP at EC80; for Emax: HEK293, HEK293 cells, percentage of maximal inhibition, read-out: Human P2X4 HEK Cells (FLIPR Assay) avg Efficacy [%]; for IC50: HEK293 cells, individual values listed where some fall outside detection range. An outline of the steps:
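HEK293 cells stably expressing human P2X4, Fluo8-AM loaded 30 min at 37° C, then compound 30 min at room temperature (0.5% DMSO, pH 7.4 buffer with 1.8 mM CaCl2). Bz-ATP at its daily-determined EC80 added; calcium fluorescence read over 120 sec; IC50 from peak RFU normalized to agonist control, triplicates.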

Turning to `NS(=O)(=O)c1cc(NC(=O)Cc2cc(C(F)(F)F)ccc2Cl)c(C(F)(F)F)cc1-n1cc(C(F)(F)F)cn1` [Example 534, 2-[2-Chloro-5-(trifluoromethyl)phenyl]-N-{5-sulfamoyl-2-(trifluoromethyl)-4-[4-(trifluoromethyl)-1H-pyrazol-1-yl]phenyl}acetamide], the Emax amounted to 17% and the IC50 is more than 25000 nM.
As for `NS(=O)(=O)c1cc(NC(=O)Cc2c(Cl)cccc2C(F)(F)F)c(C(F)(F)F)cc1-n1cc(F)cn1` [Example 535, 2-[2-Chloro-6-(trifluoromethyl)phenyl]-N-[4-(4-fluoro-1H-pyrazol-1-yl)-5-sulfamoyl-2-(trifluoromethyl)phenyl]acetamide], the Emax is 91% and the IC50 was 3840 nM.
On to `NS(=O)(=O)c1cc(NC(=O)Cc2cccc(C(F)(F)F)c2Cl)c(C(F)(F)F)cc1-n1cc(F)cn1` [Example 536, 2-[2-Chloro-3-(trifluoromethyl)phenyl]-N-[4-(4-fluoro-1H-pyrazol-1-yl)-5-sulfamoyl-2-(trifluoromethyl)phenyl]acetamide], for which the Emax amounted to 67%; the IC50 was 12400 nM and 16800 nM.
As to `NS(=O)(=O)c1cc(NC(=O)Cc2cc(C(F)(F)F)ccc2Cl)c(C(F)(F)F)cc1-n1cc(F)cn1` [Example 537, 2-[2-Chloro-5-(trifluoromethyl)phenyl]-N-[4-(4-fluoro-1H-pyrazol-1-yl)-5-sulfamoyl-2-(trifluoromethyl)phenyl]acetamide], the Emax was 95% and the IC50 stood at 3620 nM.
For `NS(=O)(=O)c1cc(NC(=O)Cc2ccc(C(F)(F)F)cc2Cl)c(C(F)(F)F)cc1-n1cc(F)cn1` [Example 538, 2-[2-Chloro-4-(trifluoromethyl)phenyl]-N-[4-(4-fluoro-1H-pyrazol-1-yl)-5-sulfamoyl-2-(trifluoromethyl)phenyl]acetamide] the same measures were 83% and 3910 nM.
For `CC(C)(C)c1nn(-c2ccc(NC(=O)Cc3ccccc3Cl)cc2S(N)(=O)=O)cc1C#N` [Example 539, N-[4-(3-tert-Butyl-4-cyano-1H-pyrazol-1-yl)-3-sulfamoylphenyl]-2-(2-chlorophenyl)acetamide], in that order: 103% and 127 nM.
For `N#Cc1cn(-c2ccc(NC(=O)Cc3ccccc3Cl)cc2S(N)(=O)=O)nc1Br` [Example 540, N-[4-(3-Bromo-4-cyano-1H-pyrazol-1-yl)-3-sulfamoylphenyl]-2-(2-chlorophenyl)acetamide], in that order: 79% and 1 nM.
With `NS(=O)(=O)c1cc(NC(=O)Cc2ccccc2Cl)ccc1-n1cc(Cl)c(C(F)(F)F)n1` [Example 541, 2-(2-Chlorophenyl)-N-{4-[4-chloro-3-(trifluoromethyl)-1H-pyrazol-1-yl]-3-sulfamoylphenyl}acetamide], the Emax came out at 50% and the IC50 is more than 25000 nM.
For `Cc1cn(-c2ccc(NC(=O)Cc3ccccc3Cl)cc2S(N)(=O)=O)nc1C` [Example 542, 2-(2-Chlorophenyl)-N-[4-(3,4-dimethyl-1H-pyrazol-1-yl)-3-sulfamoylphenyl]acetamide] the same measures were 97% and 20 nM.
For `Cc1nn(-c2ccc(NC(=O)Cc3ccccc3Cl)cc2S(N)(=O)=O)c(C)c1Cl` [Example 543, N-[4-(4-Chloro-3,5-dimethyl-1H-pyrazol-1-yl)-3-sulfamoylphenyl]-2-(2-chlorophenyl)acetamide] the same measures were 98% and 267 nM.
For `NS(=O)(=O)c1cc(NC(=O)Cc2ccccc2Cl)ccc1-n1cccn1` [Example 544, 2-(2-Chlorophenyl)-N-[4-(1H-pyrazol-1-yl)-3-sulfamoylphenyl]acetamide] the same measures were 85% and 1 nM.
`Cc1cc(C#N)nn1-c1ccc(NC(=O)Cc2ccccc2Cl)cc1S(N)(=O)=O` [Example 545, 2-(2-Chlorophenyl)-N-[4-(3-cyano-5-methyl-1H-pyrazol-1-yl)-3-sulfamoylphenyl]acetamide]: the Emax was found to be 100% and the IC50 came to 19 nM.
For `Cc1cc(O)nn1-c1ccc(NC(=O)Cc2ccccc2Cl)cc1S(N)(=O)=O` [Example 546, 2-(2-Chlorophenyl)-N-[4-(3-hydroxy-5-methyl-1H-pyrazol-1-yl)-3-sulfamoylphenyl]acetamide] the same measures were 75% and 97 nM.
For `Cc1c(C#N)cnn1-c1ccc(NC(=O)Cc2ccccc2Cl)cc1S(N)(=O)=O` [Example 547, 2-(2-Chlorophenyl)-N-[4-(4-cyano-5-methyl-1H-pyrazol-1-yl)-3-sulfamoylphenyl]acetamide] the same measures were 94% and 60 nM.
For `Cc1nn(-c2ccc(NC(=O)Cc3ccccc3Cl)cc2S(N)(=O)=O)cc1C#N` [Example 548, 2-(2-Chlorophenyl)-N-[4-(4-cyano-3-methyl-1H-pyrazol-1-yl)-3-sulfamoylphenyl]acetamide] the same measures were 94% and 5 nM.
Take `NS(=O)(=O)c1cc(NC(=O)Cc2ccccc2Cl)ccc1-c1nc(N2CCOCC2)cs1` [Example 549, 2-(2-Chlorophenyl)-N-{4-[4-(morpholin-4-yl)-1,3-thiazol-2-yl]-3-sulfamoylphenyl}acetamide]: the Emax was found to be 85% and the IC50 amounted to 8 nM.
With `NS(=O)(=O)c1cc(NC(=O)Cc2ccccc2Cl)ccc1-c1ncc(N2CCOCC2)s1` [Example 550, 2-(2-Chlorophenyl)-N-{4-[5-(morpholin-4-yl)-1,3-thiazol-2-yl]-3-sulfamoylphenyl}acetamide], the Emax was determined as 87% and the IC50 amounted to 1 nM.
For `NS(=O)(=O)c1cc(NC(=O)Cc2ccccc2Cl)ccc1-c1ccncc1` [Example 552, 2-(2-Chlorophenyl)-N-[4-(pyridin-4-yl)-3-sulfamoylphenyl]acetamide] the same measures were 88% and 1 nM.
For `NC(=O)c1cnn(-c2ccc(NC(=O)Cc3ccccc3Cl)cc2S(N)(=O)=O)c1` [Example 553, 1-(4-{[(2-Chlorophenyl)acetyl]amino}-2-sulfamoylphenyl)-1H-pyrazole-4-carboxamide], in that order: 82% and 5 nM.
For `N#Cc1cnn(-c2ccc(NC(=O)Cc3cccc(O)c3Cl)cc2S(N)(=O)=O)c1` [Example 554, 2-(2-Chloro-3-hydroxyphenyl)-N-[4-(4-cyano-1H-pyrazol-1-yl)-3-sulfamoylphenyl]acetamide] the same measures were 83% and 383 nM.
With `N#Cc1cnn(-c2ccc(NC(=O)Cc3ccc(O)cc3Cl)cc2S(N)(=O)=O)c1` [Example 555, 2-(2-Chloro-4-hydroxyphenyl)-N-[4-(4-cyano-1H-pyrazol-1-yl)-3-sulfamoylphenyl]acetamide], the Emax worked out at 94% and the IC50 worked out at 22 nM.
For `N#Cc1cnn(-c2ccc(NC(=O)Cc3cc(O)ccc3Cl)cc2S(N)(=O)=O)c1` [Example 556, 2-(2-Chloro-5-hydroxyphenyl)-N-[4-(4-cyano-1H-pyrazol-1-yl)-3-sulfamoylphenyl]acetamide], in that order: 94% and 65 nM.
